Measurements reported in US9320760B2, “Compositions and methods of use of compounds to increase cancer patient survival time” (BioNumerik Pharmaceuticals, Inc., priority 2008, dated 2016).
Where two headings read alike, the source gives them in different places.

How the values were obtained:
[1] = test system: mammalian thioredoxin reductase (TXR); conditions: cited from earlier work
Thioredoxin Reductase = target: T1, Thioredoxin Reductase (Bos taurus, UniProt O62768); experiment: NADPH oxidation at 340 nm, thioredoxin reductase only; type: biochemical, bovine; conditions: Disulfide 0.5 mM; minimum of triplicate assays
T1 sequence (O62768 1-499): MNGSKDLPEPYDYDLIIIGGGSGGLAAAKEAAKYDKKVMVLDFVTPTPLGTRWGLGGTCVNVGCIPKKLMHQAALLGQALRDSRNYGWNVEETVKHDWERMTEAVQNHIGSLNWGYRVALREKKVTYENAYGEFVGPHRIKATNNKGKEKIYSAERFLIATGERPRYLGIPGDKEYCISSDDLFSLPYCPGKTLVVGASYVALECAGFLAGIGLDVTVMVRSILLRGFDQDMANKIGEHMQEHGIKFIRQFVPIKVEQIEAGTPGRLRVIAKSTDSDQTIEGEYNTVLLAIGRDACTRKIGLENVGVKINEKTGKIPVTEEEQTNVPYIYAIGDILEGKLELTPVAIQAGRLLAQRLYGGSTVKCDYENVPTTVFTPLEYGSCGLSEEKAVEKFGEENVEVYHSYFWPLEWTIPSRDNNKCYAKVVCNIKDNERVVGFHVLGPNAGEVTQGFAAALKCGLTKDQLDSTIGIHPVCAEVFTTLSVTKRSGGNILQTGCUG
Method: (§1) Biochemistry 21:6628-6633 (1982).
(§2) Data was then collected and plotted in Microsoft Excel. Error calculations, and graphical representations were performed in Microsoft Excel and Kaleidograph (ver. 3.5). Nonlinear data was graphically rendered using Kaleidograph. ANOVA and other statistical analyses were performed using SAS (ver. 8.2). Unless otherwise noted, significance level was set at 0.05, and error bars represent actual experimental standard deviation.
(§3) It should be noted that for the purposes of FIG. 17 only, thioredoxin is labeled TXR and thioredoxin reductase is labeled TRR.

[2] = target: T2, Thioredoxin Reductase + Thioredoxin (Bos taurus, UniProt O97680); experiment: NADPH oxidation at 340 nm, coupled thioredoxin (TX)/thioredoxin reductase (TXR)/NADPH system; type: biochemical, bovine; conditions: Disulfide 0.5 mM; minimum of triplicate assays
T2 sequence (O97680 1-105): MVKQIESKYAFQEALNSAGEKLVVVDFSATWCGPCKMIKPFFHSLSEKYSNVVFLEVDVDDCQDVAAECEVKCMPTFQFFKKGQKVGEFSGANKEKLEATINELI
Method: as §1, §2, §3
Table 4, below, illustrates that various Formula (I) compounds (i.e., disulfide-containing compounds) of the present invention can serve as alternate substrate inhibitors for the coupled thioredoxin (TX)/thioredoxin reductase (TXR)/NADPH system as measured by the oxidation of NADPH. In Table 4, the Formula (I) compounds were utilized at a concentration of 0.5 mM.

[3] = target: T3, glutathione reductase (GR) (Homo sapiens, UniProt P00390); experiment: NADPH oxidation, glutathione reductase (GR) alone; type: biochemical; conditions: for NADPH Oxidation, GR: Disulfide 0.5 mM, n = 6
T3 sequence (P00390 44-522): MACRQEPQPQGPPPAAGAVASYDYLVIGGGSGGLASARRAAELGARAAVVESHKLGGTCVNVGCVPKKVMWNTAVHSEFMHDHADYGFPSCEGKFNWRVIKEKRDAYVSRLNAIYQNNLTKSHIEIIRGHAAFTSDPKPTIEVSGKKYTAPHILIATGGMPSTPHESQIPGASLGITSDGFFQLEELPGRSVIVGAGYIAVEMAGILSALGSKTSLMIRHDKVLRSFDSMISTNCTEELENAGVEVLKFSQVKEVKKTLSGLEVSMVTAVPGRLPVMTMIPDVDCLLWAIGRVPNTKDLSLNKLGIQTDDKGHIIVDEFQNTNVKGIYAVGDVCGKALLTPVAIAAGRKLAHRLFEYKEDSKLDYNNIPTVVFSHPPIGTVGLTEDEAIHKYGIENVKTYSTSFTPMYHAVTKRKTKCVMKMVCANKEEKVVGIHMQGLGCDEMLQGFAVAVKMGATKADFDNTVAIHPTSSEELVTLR
Method: (§4) The Formula (I) compound was utilized at a concentration of 0.5 mM.

GR + GSH = target: T4, GR + GSH (Homo sapiens, UniProt P00390); experiment: NADPH oxidation, GR + GSH; type: biochemical; conditions: Disulfide 0.5 mM; n = 6
T4 sequence (P00390 44-522): T3 sequence (P00390 44-522)
Method: as §4

[4] = target: T5, GR + GRX + GSH (coupled glutaredoxin/glutathione/glutathione reductase system) (Homo sapiens, UniProt P35754); experiment: NADPH oxidation, coupled GRX/GSH/GR system; type: biochemical; conditions: Disulfide 0.5 mM; n = 6
T5 sequence (P35754 1-106): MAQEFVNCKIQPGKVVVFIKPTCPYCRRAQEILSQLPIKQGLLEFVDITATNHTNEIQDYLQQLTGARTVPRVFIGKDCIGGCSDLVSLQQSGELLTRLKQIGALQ
Method: as §4

[5] = test system: cellular ribonucleotide reductase in human cancer cells; conditions: literature; cited from earlier work
[6] = target: T3, glutathione reductase (GR); conditions: cited from earlier work
whole cells = experiment: whole cell mediated disulfide reduction (α-lipoic acid, hydroxyethyldisulfide); type: cell-based; conditions: mesna in combination with cisplatin
[7] = test system: non-small cell lung carcinoma (NSCLC) cell lines; experiment: cytotoxicity study in combination with chemotherapeutic agents, NSCLC cell lines; type: cell-based, human
[8] = test system: ovarian cancer cell lines; experiment: cytotoxicity study in combination with oxaliplatin, ovarian cancer cell lines; type: cell-based, human; conditions: mesna 100 μM in combination with oxaliplatin vs oxaliplatin alone controls
brain cancer cells = experiment: cytotoxicity study in combination with oxaliplatin, brain cancer cells; type: cell-based, human; conditions: oxaliplatin and mesna, observable but not statistically significant
[9] = literature studies, result in words

## CC1=C(/C=C/C(C)=C/C=C/C(C)=C\C(=O)O)C(C)(C)CCC1 [13-cis-retinoic acid]
[1]; [9]
  inhibition of TXR: irreversible inhibition

## NC(CSSCCS(=O)(=O)O)C(=O)O (stereo not shown) [BNP7766]
Thioredoxin Reductase
  NADPH Oxidation, Thioredoxin Reductase only: 0.2 ± 0.03 nmol/min/mL
[2]
  NADPH Oxidation, Thioredoxin Reductase + Thioredoxin: 14.4 ± 0.2 nmol/min/mL
[3]
  NADPH Oxidation, GR: 0.0 ± 0.01 nmol/min/mL
GR + GSH
  NADPH Oxidation, GR + GSH: 4.1 ± 1.3 nmol/min/mL
[4]
  NADPH Oxidation, GR + GRX + GSH: 28.3 ± 2.0 nmol/min/mL

## NC(CCSSCCS(=O)(=O)O)C(=O)O (stereo not shown) [BNP7768]
Thioredoxin Reductase
  NADPH Oxidation, Thioredoxin Reductase only: 0.0 ± 0.03 nmol/min/mL
[2]
  NADPH Oxidation, Thioredoxin Reductase + Thioredoxin: 8.6 ± 0.06 nmol/min/mL
[3]
  NADPH Oxidation, GR: 0.16 ± 0.96 nmol/min/mL
GR + GSH
  NADPH Oxidation, GR + GSH: 0.88 ± 0.2 nmol/min/mL
[4]
  NADPH Oxidation, GR + GRX + GSH: 10.7 ± 0.7 nmol/min/mL

## N[C@@H](CCC(=O)N[C@@H](CSSCCS(=O)(=O)O)C(=O)NCC(=O)O)C(=O)O [BNP7772]
Thioredoxin Reductase
  NADPH Oxidation, Thioredoxin Reductase only: 0.3 ± 0.02 nmol/min/mL
[2]
  NADPH Oxidation, Thioredoxin Reductase + Thioredoxin: 14.1 ± 0.1 nmol/min/mL
[3]
  NADPH Oxidation, GR: 8.0 ± 0.6 nmol/min/mL
[3]; result in words
  substrate / alternative substrate inhibitor for glutathione reductase: functions as an alternative substrate inhibitor
GR + GSH
  NADPH Oxidation, GR + GSH: 11.3 ± 0.8 nmol/min/mL
[4]
  NADPH Oxidation, GR + GRX + GSH: 71.0 ± 7.9 nmol/min/mL

## NC(CCC(=O)NC(CSSCCS(=O)(=O)O)C(=O)O)C(=O)O (stereo not shown) [BNP7774]
Thioredoxin Reductase
  NADPH Oxidation, Thioredoxin Reductase only: 0.3 ± 0.02 nmol/min/mL
[2]
  NADPH Oxidation, Thioredoxin Reductase + Thioredoxin: 9.6 ± 0.2 nmol/min/mL
[3]
  NADPH Oxidation, GR: 0.04 ± 0.12 nmol/min/mL
GR + GSH
  NADPH Oxidation, GR + GSH: 2.4 ± 0.7 nmol/min/mL
[4]
  NADPH Oxidation, GR + GRX + GSH: 37.0 ± 2.1 nmol/min/mL

## N[C@@H](CSSCCS(=O)(=O)O)C(=O)NCC(=O)O [BNP7776]
Thioredoxin Reductase
  NADPH Oxidation, Thioredoxin Reductase only: 0.2 ± .04 nmol/min/mL
[2]
  NADPH Oxidation, Thioredoxin Reductase + Thioredoxin: 15.8 ± 0.3 nmol/min/mL
[3]
  NADPH Oxidation, GR: 0.0 ± 0.7 nmol/min/mL
GR + GSH
  NADPH Oxidation, GR + GSH: 4.1 ± 1.0 nmol/min/mL
[4]
  NADPH Oxidation, GR + GRX + GSH: 22.0 ± 0.5 nmol/min/mL

## CCOC(=O)NC1=C(N2CC2)C(=O)C(NC(=O)OCC)=C(N2CC2)C1=O [Diaziquone]
[5]
  inhibition of the TR/TXR system resulting in inhibition of cellular ribonucleotide reductase activity: concentration-dependent inhibition

## CS(=O)(=O)OCCCCOS(C)(=O)=O [busulfan]
[1]; [9]
  inhibition of TXR: irreversibly inhibited
[6]; [9]
  inhibition of GR: not GR

## N.N.O=C([O-])C1(C(=O)[O-])CCC1.[Pt+2] [carboplatin]
[1]; [9]
  inhibition of TXR: could not inhibit
[6]; [9]
  inhibition of GR: could not inhibit

## O=NN(CCCl)C(=O)NCCCl [carmustine]
[1]; [9]
  inhibition of TXR: can inhibit
[6]; [9]
  inhibition of GR: can inhibit

## O=C(O)CCCc1ccc(N(CCCl)CCCl)cc1 [chlorambucil]
[1]; [9]
  inhibition of TXR: irreversibly inhibited
[6]; [9]
  inhibition of GR: not GR

## N.N.[Cl][Pt][Cl] [cisplatin, cis-diamminedichloroplatinum]
[1]; [9]
  inhibition of TXR: irreversibly inhibited
[6]; [9]
  inhibition of GR: not GR

## O=P1(N(CCCl)CCCl)NCCCO1 (stereo not shown) [cyclophosphamide]
[1]; [9]
  inhibition of TXR: irreversibly inhibited
[6]; [9]
  inhibition of GR: not GR

## COc1cccc2c1C(=O)c1c(O)c3c(c(O)c1C2=O)C[C@@](O)(C(C)=O)C[C@@H]3O[C@H]1C[C@H](N)[C@H](O)[C@H](C)O1 [daunorubicin]
[1]
  inhibition of TXR: not inhibitors

## COc1cccc2c1C(=O)c1c(O)c3c(c(O)c1C2=O)C[C@@](O)(C(=O)CO)C[C@@H]3O[C@H]1C[C@H](N)[C@H](O)[C@H](C)O1 [doxorubicin]
[1]; [9]
  inhibition of TXR: not inhibitors
[5]
  inhibition of the TR/TXR system resulting in inhibition of cellular ribonucleotide reductase activity: concentration-dependent inhibition

## O=P1(NCCCl)OCCCN1CCCl (stereo not shown) [ifosfamide]
[1]; [9]
  inhibition of TXR: inhibited

## N[C@@H](Cc1ccc(N(CCCl)CCCl)cc1)C(=O)O [melphalan]
[1]; [9]
  inhibition of TXR: irreversibly inhibited
[6]; [9]
  inhibition of GR: not GR

## O=S(=O)([O-])CCS.[Na+] [mesna, 2-mercapto ethane sulfonate sodium]
Whole cells
  reduction of α-lipoic acid (TX/TXR substrate) or hydroxyethyldisulfide (GRX substrate) by whole cells: enhanced
[7]; mesna 100 μM in combination with oxaliplatin vs oxaliplatin alone controls
  cytotoxic effect of oxaliplatin: markedly enhanced
[7]; mesna 100 μM in combination with paclitaxel vs paclitaxel alone controls
  cytotoxic effect of paclitaxel: enhanced
[8]
  cytotoxic effect of oxaliplatin: markedly enhanced
Brain cancer cells
  oxaliplatin cytotoxicity: lesser increase

## O=C(O)C(=O)O.[NH-][C@@H]1CCCC[C@H]1[NH-].[Pt+2] [oxaliplatin]
[1]
  inhibition of TXR: irreversibly inhibited
[6]
  inhibition of GR: not GR

## N.N.[Cl][Pt+2][Cl] [transplatin]
[1]
  inhibition of TXR: irreversibly inhibited
[6]
  inhibition of GR: not GR
